Results on 22 molecules are retold here after ChEMBL document CHEMBL5291721, “A preclinical secondary pharmacology resource illuminates target-adverse drug reaction associations of marketed drugs” (Nat Commun, 2023).

In experiment [1] the target is Prostaglandin G/H synthase 1 (Homo sapiens, UniProt P23219). Type of experiment: functional.
Experiment [2] addresses T1, Muscarinic acetylcholine receptor M2 (Homo sapiens, UniProt P08172).
T1 sequence (P08172 whole entry): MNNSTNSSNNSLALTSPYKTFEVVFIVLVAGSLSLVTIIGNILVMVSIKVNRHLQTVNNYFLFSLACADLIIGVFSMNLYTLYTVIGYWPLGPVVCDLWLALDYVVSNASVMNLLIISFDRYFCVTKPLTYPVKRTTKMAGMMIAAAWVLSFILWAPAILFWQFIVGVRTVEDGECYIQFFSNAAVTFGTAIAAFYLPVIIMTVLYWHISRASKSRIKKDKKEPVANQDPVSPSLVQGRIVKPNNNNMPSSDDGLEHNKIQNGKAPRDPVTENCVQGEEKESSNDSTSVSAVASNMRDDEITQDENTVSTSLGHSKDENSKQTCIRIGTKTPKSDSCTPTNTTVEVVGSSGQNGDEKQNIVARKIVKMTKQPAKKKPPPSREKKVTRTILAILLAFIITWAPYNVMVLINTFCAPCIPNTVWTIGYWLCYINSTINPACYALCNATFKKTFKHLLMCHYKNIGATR

The target of a further experiment is Mu-type opioid receptor (Homo sapiens, UniProt P35372).
Sequence of Mu-type opioid receptor (P35372 whole entry): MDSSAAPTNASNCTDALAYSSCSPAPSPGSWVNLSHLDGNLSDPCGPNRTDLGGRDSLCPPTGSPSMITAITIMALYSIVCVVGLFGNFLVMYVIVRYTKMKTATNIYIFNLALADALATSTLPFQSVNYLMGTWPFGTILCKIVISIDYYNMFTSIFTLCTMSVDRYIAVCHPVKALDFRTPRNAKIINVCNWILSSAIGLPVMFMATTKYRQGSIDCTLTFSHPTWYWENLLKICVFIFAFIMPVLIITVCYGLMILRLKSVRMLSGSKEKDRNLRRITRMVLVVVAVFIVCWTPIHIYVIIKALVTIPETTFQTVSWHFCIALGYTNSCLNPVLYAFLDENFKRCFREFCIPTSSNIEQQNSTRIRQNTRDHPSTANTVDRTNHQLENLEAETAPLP
The target in experiment [3] is T2, Alpha-1A adrenergic receptor (Homo sapiens, UniProt P35348).
T2 sequence (P35348 whole entry): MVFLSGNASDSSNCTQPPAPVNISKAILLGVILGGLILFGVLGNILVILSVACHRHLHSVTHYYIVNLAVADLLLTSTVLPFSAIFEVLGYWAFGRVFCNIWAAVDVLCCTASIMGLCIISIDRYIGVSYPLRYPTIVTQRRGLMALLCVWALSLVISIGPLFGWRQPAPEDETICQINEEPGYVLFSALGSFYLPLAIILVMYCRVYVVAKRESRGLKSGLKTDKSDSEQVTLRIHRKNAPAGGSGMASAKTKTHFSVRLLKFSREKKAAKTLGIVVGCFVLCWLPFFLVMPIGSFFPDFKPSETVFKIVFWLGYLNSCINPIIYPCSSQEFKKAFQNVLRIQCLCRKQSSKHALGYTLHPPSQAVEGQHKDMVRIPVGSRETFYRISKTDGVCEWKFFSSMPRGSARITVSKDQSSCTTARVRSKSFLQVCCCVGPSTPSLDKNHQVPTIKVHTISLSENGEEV
The class given is functional, cell-based.

In experiment [4] the target is Beta-2 adrenergic receptor (Homo sapiens, UniProt P07550).
Sequence of Beta-2 adrenergic receptor (P07550 whole entry): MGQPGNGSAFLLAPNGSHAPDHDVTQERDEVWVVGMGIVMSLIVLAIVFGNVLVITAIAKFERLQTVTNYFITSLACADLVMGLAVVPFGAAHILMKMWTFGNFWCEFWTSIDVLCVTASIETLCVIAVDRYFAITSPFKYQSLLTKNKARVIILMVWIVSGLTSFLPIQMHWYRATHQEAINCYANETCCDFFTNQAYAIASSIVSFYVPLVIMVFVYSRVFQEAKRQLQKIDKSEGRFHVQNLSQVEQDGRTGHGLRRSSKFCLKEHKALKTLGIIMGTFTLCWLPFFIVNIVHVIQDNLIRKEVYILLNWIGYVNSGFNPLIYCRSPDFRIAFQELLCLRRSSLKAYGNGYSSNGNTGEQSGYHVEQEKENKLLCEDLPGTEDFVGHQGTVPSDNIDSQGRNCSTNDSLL
Experiment [5] addresses T1, Muscarinic acetylcholine receptor M2. The class given is functional, cell-based.
For experiment [6], the target named is Gamma-aminobutyric acid receptor subunit alpha-1 (Rattus norvegicus, UniProt P62813).
Sequence of Gamma-aminobutyric acid receptor subunit alpha-1 (P62813 whole entry): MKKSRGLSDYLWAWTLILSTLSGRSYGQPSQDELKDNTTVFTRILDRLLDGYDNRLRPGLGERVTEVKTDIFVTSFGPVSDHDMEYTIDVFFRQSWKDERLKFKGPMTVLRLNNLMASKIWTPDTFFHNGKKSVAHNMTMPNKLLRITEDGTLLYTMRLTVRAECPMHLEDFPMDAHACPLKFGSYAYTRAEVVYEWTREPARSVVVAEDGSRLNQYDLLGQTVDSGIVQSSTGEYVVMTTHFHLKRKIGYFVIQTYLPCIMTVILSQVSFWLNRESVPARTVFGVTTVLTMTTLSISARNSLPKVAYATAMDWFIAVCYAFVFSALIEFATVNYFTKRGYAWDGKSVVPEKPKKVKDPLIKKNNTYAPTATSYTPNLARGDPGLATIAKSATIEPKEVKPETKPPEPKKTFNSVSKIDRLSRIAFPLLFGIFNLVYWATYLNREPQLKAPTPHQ
The next experiment concerns the target Vasopressin V2 receptor (Homo sapiens, UniProt P30518).
Experiment [7] deals with T3, 5-hydroxytryptamine receptor 1A (Homo sapiens, UniProt P08908).
T3 sequence (P08908 whole entry): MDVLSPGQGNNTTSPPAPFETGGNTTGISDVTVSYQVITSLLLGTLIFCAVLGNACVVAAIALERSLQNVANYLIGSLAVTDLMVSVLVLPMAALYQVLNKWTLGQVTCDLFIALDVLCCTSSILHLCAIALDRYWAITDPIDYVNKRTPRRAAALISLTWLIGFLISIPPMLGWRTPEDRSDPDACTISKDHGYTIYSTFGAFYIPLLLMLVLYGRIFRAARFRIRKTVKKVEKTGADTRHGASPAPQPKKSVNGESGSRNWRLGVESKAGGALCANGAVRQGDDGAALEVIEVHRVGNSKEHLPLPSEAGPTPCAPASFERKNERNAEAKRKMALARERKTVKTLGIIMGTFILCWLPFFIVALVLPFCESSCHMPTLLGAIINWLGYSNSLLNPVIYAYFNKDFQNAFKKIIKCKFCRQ
Type of experiment: functional, cell-based.

In experiment [8] the target is T4, Progesterone receptor (Homo sapiens, UniProt P06401).
T4 sequence (P06401 whole entry): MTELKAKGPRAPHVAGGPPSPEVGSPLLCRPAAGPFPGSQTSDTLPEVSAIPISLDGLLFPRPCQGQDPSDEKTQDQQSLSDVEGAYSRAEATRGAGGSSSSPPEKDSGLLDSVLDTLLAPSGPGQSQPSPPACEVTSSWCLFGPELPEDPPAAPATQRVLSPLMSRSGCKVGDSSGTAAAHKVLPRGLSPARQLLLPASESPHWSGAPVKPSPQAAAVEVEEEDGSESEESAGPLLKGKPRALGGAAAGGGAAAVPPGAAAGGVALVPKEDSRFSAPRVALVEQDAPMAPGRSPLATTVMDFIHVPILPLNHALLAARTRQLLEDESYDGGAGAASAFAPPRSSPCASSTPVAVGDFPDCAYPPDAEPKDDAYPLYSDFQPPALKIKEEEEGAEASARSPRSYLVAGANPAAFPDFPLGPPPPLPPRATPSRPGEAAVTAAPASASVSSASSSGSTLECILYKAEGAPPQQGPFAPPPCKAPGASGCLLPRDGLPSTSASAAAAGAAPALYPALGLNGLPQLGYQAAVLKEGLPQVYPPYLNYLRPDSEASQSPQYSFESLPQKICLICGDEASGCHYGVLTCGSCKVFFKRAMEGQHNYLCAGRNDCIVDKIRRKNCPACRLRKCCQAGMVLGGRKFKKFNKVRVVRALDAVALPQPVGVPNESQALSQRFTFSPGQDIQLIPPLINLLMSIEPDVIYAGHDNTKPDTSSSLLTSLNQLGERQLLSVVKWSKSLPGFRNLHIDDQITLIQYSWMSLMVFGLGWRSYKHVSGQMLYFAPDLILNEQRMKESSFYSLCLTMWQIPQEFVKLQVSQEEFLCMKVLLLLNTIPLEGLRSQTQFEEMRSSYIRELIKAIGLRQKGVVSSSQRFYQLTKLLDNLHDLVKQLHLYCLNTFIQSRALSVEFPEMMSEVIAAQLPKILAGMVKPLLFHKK
The class given is functional.

For experiment [9], the target named is T4, Progesterone receptor. The class given is functional. This is another data set of the same source.

Bounds are passed on as bounds.
Further: assay procedure not described here.

Sequence of Prostaglandin G/H synthase 1 (P23219 whole entry): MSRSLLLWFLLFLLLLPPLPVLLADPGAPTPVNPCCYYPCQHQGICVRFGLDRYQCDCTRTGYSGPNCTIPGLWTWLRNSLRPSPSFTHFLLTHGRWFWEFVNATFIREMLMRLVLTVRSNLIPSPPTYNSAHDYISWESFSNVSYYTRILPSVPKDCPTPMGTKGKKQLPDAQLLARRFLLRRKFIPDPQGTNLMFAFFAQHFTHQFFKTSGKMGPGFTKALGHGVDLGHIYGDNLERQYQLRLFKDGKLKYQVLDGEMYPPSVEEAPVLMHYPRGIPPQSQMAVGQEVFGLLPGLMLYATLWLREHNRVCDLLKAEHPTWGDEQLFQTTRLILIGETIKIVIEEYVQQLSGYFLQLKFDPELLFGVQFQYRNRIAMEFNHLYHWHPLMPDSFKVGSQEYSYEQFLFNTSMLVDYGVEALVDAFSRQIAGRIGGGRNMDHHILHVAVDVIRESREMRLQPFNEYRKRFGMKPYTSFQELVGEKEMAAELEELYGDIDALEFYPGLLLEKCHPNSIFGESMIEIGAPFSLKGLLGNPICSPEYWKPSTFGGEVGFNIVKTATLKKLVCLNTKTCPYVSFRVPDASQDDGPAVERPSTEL
Sequence of Vasopressin V2 receptor (P30518 whole entry): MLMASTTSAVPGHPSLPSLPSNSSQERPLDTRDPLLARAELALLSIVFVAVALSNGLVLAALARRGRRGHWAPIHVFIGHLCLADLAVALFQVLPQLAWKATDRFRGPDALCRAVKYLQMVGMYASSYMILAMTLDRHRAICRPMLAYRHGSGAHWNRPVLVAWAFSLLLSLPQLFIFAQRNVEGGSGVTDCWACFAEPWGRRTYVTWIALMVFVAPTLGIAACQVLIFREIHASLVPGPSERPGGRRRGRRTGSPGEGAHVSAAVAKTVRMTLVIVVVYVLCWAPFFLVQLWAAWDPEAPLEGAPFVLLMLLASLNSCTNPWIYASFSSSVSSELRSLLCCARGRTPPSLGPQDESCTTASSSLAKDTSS

Consider `O=C1c2c(O)c(=O)ccn2N([C@@H]2c3ccccc3SCc3c2ccc(F)c3F)[C@@H]2COCCN12` [BALOXAVIR], for which the AC50 is over 30 µM in experiment [1], over 30 µM in [2], 22 µM on Mu-type opioid receptor and over 30 µM in experiment [3].

As for `Cc1c(-c2ccccc2)oc2c(C(=O)OCCN3CCCCC3)cccc2c1=O` [FLAVOXATE], the AC50 in experiment [1] is over 30 µM; in [2], 3.39 µM; at Mu-type opioid receptor it was 3.05 µM; in [3] it was 6.29 µM.

Take `CCOC(=O)N[C@@H]1CC[C@@H]2[C@@H](C1)C[C@H]1C(=O)O[C@H](C)[C@H]1[C@H]2/C=C/c1ccc(-c2cccc(F)c2)cn1` [VORAPAXAR]: the AC50 was over 30 µM in experiment [1], over 30 µM in [2], 0.82 µM on Mu-type opioid receptor and over 30 µM in experiment [3].

Take `CC(=O)Oc1c(C)cc(OCC(O)CNC(C)C)c(C)c1C` (stereo unspecified) [METIPRANOLOL]: the concentration at half-maximal activity (AC50) (in [1]; in experiment [2]; at Mu-type opioid receptor; in experiment [3]) was over 30 µM throughout.

Regarding `CCc1ccc(CCOc2ccc(CC3SC(=O)NC3=O)cc2)nc1` (stereo unspecified) [PIOGLITAZONE], the concentration at half-maximal activity (AC50) in experiment [4] was over 10 µM; in experiment [5], over 10 µM; in experiment [6], over 10 µM; at Vasopressin V2 receptor, over 30 µM; in [1], over 30 µM; in experiment [2] it was over 30 µM. Further, the AC50 is over 30 µM at Mu-type opioid receptor, over 10 µM in experiment [7] and over 10 µM in experiment [3].

In the case of `CCO/N=C(\C(=O)N[C@@H]1C(=O)N2C(C(=O)[O-])=C(Sc3nc(-c4cc[n+](C)cc4)cs3)CS[C@H]12)c1nsc(N)n1` [CEFTAROLINE], the AC50 (in experiment [1]; in experiment [2]; at Mu-type opioid receptor; in [3]) was over 30 µM each time.

In the case of `C[N+](C)(C)CCCCCCCCCC[N+](C)(C)C` [DECAMETHONIUM], the half-maximal activity concentration (AC50) (in [1]; in experiment [2]; at Mu-type opioid receptor; in experiment [3]) was over 30 µM throughout.

On to `CC(O)CO` (stereo unspecified) [PROPYLENE GLYCOL], for which the AC50 (in experiment [1]; in experiment [2]; at Mu-type opioid receptor; in experiment [3]) was over 30 µM each time.

Turning to `O=C1c2ccccc2C(=O)C1C(=O)C(c1ccccc1)c1ccccc1` [DIPHENADIONE], the AC50 in experiment [1] was 15.6 µM; in [2], over 30 µM; on Mu-type opioid receptor, over 30 µM; in experiment [3], over 3 µM.

`CC(C)OC(=O)[C@H](C)N[P@](=O)(OC[C@H]1O[C@@H](n2ccc(=O)[nH]c2=O)[C@](C)(F)[C@@H]1O)Oc1ccccc1` [SOFOSBUVIR]: the AC50 (in [1]; in experiment [2]; at Mu-type opioid receptor; in experiment [3]) was over 30 µM in each case.

Take `OC[C@@H](O)[C@@H](O)[C@H](O)[C@H](O)CO` [MANNITOL]: the AC50 (in [1]; in experiment [2]; on Mu-type opioid receptor; in experiment [3]) was over 30 µM throughout.

On to `Sc1ncnc2nc[nH]c12` [MERCAPTOPURINE ANHYDROUS], for which the AC50 (in experiment [1]; in [2]; on Mu-type opioid receptor; in [3]) was over 30 µM in each case.

Turning to `Cc1ccc(O)c2ncccc12` [TILIQUINOL], the AC50 (in [1]; in [2]; at Mu-type opioid receptor; in experiment [3]) was over 30 µM in each case.

In the case of `CN(C)C(=O)Oc1ccc[n+](C)c1` [PYRIDOSTIGMINE], the AC50 (in experiment [1]; in experiment [2]; at Mu-type opioid receptor; in [3]) was over 30 µM in each case.

Take `O=C(NC[C@H]1CN(c2ccc(N3CCOCC3=O)cc2)C(=O)O1)c1ccc(Cl)s1` [RIVAROXABAN]: the AC50 (in [5]; at Progesterone receptor [8]; at Progesterone receptor [9]; in experiment [1]; in experiment [2]; on Mu-type opioid receptor) was over 30 µM in each case. For the same molecule, in [3], the AC50 is over 3 µM.

For the molecule `O=C(COc1ccc(Cl)cc1)N1CCN(Cc2ccc3c(c2)OCO3)CC1` [FIPEXIDE], the AC50 in experiment [1] was over 30 µM; in experiment [2], over 30 µM; at Mu-type opioid receptor it was 18.4 µM; in experiment [3], 13.3 µM.

With `CC(N/C(=N\C#N)Nc1ccncc1)C(C)(C)C` (stereo unspecified) [PINACIDIL ANHYDROUS], the AC50 (in experiment [1]; in experiment [2]; at Mu-type opioid receptor; in experiment [3]) was over 30 µM throughout.

On to `C#C[C@]1(O)CC[C@H]2[C@@H]3CCC4=CC(=O)CC[C@@H]4[C@H]3CC[C@@]21CC` [LEVONORGESTREL], for which the AC50 (in [1]; in experiment [2]; on Mu-type opioid receptor; in experiment [3]) was over 30 µM in each case.

With `CN1CCCC(CN2c3ccccc3Sc3ccccc32)C1` (stereo unspecified) [MEPAZINE], the AC50 in experiment [1] is 21.6 µM; in experiment [2], 0.347 µM; on Mu-type opioid receptor, 6.07 µM; in experiment [3] it was 0.391 µM.

Consider `C(=N\NC1=NCCN1)/c1c2ccccc2c(/C=N/NC2=NCCN2)c2ccccc12` [BISANTRENE], for which the AC50 in [1] was over 30 µM; in experiment [2], 2.74 µM; on Mu-type opioid receptor it was 5.36 µM; in experiment [3] it was 1.47 µM.

`CCOC(=O)c1ccc(O)cc1` [ETHYLPARABEN]: the AC50 was over 1 µM in [1], over 30 µM in experiment [2], over 30 µM at Mu-type opioid receptor and over 30 µM in [3].

`CC1(C)O[C@@H]2C[C@H]3[C@@H]4C[C@H](F)C5=CC(=O)CC[C@]5(C)[C@H]4[C@@H](O)C[C@]3(C)[C@]2(C(=O)CO)O1` [FLURANDRENOLIDE]: the AC50 (in experiment [1]; in [2]; on Mu-type opioid receptor; in experiment [3]) was over 30 µM throughout.

In general, AC50 refers to the concentration giving half of the maximal activity seen.
